Reference: US10023534B2 (BRISTOL-MYERS SQUIBB COMPANY, priority 2014, dated 2018)
Read-outs that look alike come from different tables or passages of the source. Each block holds one compound with its values, some of them ahead of it.

Tests used:
human recombinant Btk = human recombinant Btk (Homo sapiens (Human), UniProt Q06187); assay: Human Recombinant Btk Enzyme Assay; type: biochemical; details: for Potency Difference Btk: ratio of IC50 value for the Comparative Example to that for the corresponding Example: Comparative Example (stereoisomer) IC50 / Example IC50
Sequence of human recombinant Btk (Q06187 whole entry): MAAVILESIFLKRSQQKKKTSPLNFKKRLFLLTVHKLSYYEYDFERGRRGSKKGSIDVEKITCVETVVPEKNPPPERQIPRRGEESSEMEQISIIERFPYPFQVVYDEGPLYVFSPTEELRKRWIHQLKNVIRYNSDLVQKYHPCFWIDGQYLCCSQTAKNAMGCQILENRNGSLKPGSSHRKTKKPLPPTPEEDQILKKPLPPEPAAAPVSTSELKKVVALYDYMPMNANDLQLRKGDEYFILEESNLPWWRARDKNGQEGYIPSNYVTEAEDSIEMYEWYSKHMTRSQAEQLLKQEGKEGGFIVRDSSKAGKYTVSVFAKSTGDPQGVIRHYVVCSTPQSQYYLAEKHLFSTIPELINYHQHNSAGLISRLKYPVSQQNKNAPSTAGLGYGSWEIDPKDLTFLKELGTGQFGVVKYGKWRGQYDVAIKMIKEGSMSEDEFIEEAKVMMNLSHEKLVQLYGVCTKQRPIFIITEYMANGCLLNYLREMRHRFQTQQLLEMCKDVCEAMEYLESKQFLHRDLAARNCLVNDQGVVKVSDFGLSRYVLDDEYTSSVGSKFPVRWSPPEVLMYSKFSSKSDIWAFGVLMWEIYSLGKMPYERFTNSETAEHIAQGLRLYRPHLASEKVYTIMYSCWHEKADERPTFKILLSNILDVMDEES
Description: Human Recombinant Btk Enzyme Assay
To V-bottom 384-well plates were added test compounds, human recombinant Btk (1 nM, Invitrogen Corporation), fluoresceinated peptide (1.5 μM), ATP (20 μM), and assay buffer (20 mM HEPES pH 7.4, 10 mM MgCl2, 0.015% Brij 35 surfactant and 4 mM DTT in 1.6% DMSO), with a final volume of 30 μL. After incubating at room temperature for 60 min, the reaction was terminated by adding 45 μL of 35 mM EDTA to each sample. The reaction mixture was analyzed on the Caliper LABCHIP® 3000 (Caliper, Hopkinton, Mass.) by electrophoretic separation of the fluorescent substrate and phosphorylated product. […] Compounds were dissolved at 10 mM in DMSO and evaluated at eleven concentrations.

Ramos RA1 B cells = assay: Ramos FLIPR Assay (intracellular calcium flux, anti-human IgM stimulated); type: cell-based; details: for Potency Difference Ramos: ratio of IC50 value for the Comparative Example to that for the corresponding Example: Comparative Example (stereoisomer) IC50 / Example IC50
Description: Ramos FLIPR Assay […] Dye-loaded cells were pelleted (Beckmann GS-CKR, 1200 rpm, room temperature, 5 min) and resuspended at room temperature in RPMI minus phenol red with 50 mM HEPES and 10% FBS to a density of 1×10^6 cells/mL. 150 μL aliquots (150,000 cells/well) were plated into 96 well poly-D-lysine coated assay plates (BD 35 4640) and briefly centrifuged (Beckmann GS-CKR 800 rpm, 5 min, without brake). Next, 50 μL compound dilutions in 0.4% DMSO/RPMI minus phenol red+50 mM HEPES+10% FBS were added to the wells and the plate was incubated at room temperature in the dark for 1 hour. The assay plate was briefly centrifuged as above prior to measuring calcium levels. Using the […] (Molecular Devices), cells were stimulated by adding goat anti-human IgM (Invitrogen AHI0601) to 2.5 μg/mL. Changes in intracellular calcium concentrations were measured for 180 seconds and percent inhibition was determined relative to peak calcium levels seen in the presence of stimulation only. The Ramos assay measures the ability of a compound to move through the cell membrane into the cell interior. A lower IC50 value indicates a greater ability to move into the cell interior.

[1] = Table 3, ATP 20 μM, 60 min room temperature, read-out: Btk IC50 value
[2] = Ramos, Table 3, calcium flux, goat anti-human IgM 2.5 μg/mL, read-out: Ramos IC50 value
[3] = Table 4, Comparative Example, read-out: Comparative Example Btk IC50
[4] = Homo sapiens, Ramos, Table 4, Comparative Example, read-out: Comparative Example Ramos IC50
[5] = Table 4, read-out: Example Btk IC50
[6] = Homo sapiens, Ramos, Table 4, read-out: Example Ramos IC50
[7] = Homo sapiens, Ramos, Table 3, calcium flux, goat anti-human IgM 2.5 μg/mL, read-out: Ramos IC50 value

IC50 (human recombinant Btk; [1]): 0.13 nM | IC50 (Ramos RA1 B cells; [2]): 9.2 nM
Structure (SMILES): C=CC(=O)N1CCSc2c(-c3c(F)cc(C(N)=O)c4[nH]c5ccccc5c34)cccc21 (racemic) [Example 13, (RS)-4-(4-acryloyl-3,4-dihydro-2H-benzo[b][1,4]thiazin-8-yl)-3-fluoro-9H-carbazole-1-carboxamide]

IC50 (human recombinant Btk; [1]): 0.26 nM | IC50 (Ramos RA1 B cells; [2]): 107 nM
Structure (SMILES): C=CC(=O)N1CCc2c(cccc2-c2c(F)cc(C(N)=O)c3[nH]c4ccc(Cl)cc4c23)C1 (racemic) [Example 29, 4-(2-acryloyl-1,2,3,4-tetrahydroisoquinolin-5-yl)-6-chloro-3-fluoro-9H-carbazole-1-carboxamide]

IC50 (human recombinant Btk; [3]): 14 nM | IC50 (Ramos RA1 B cells; [4]): > 300 nM
Structure (SMILES): C=CC(=O)N1CCc2c(cccc2-c2c(F)cc(C(N)=O)c3[nH]c4cc(C(F)(F)F)ccc4c23)C1 (single isomer, unassigned) [Comparative Example 17, 4-(2-Acryloyl-1,2,3,4-tetrahydroisoquinolin-5-yl)-3-fluoro-7-(trifluoromethyl)-9H-carbazole-1-carboxamide]

Potency Difference Btk: ratio of IC50 value for the Comparative Example to that for the corresponding Example (human recombinant Btk): 26 | IC50 (human recombinant Btk; [1]): 0.37 nM | IC50 (human recombinant Btk; [5]): 0.37 nM | Potency Difference Ramos: ratio of IC50 value for the Comparative Example to that for the corresponding Example (Ramos RA1 B cells): 48 | IC50 (Ramos RA1 B cells; [6]): 6.2 nM | IC50 (Ramos RA1 B cells; [2]): 6.2 nM
Structure (SMILES): C=CC(=O)N1CCCOc2c(-c3c(F)cc(C(N)=O)c4[nH]c5cc(C(F)(F)F)ccc5c34)cccc21 (single isomer, unassigned) [Example 12, 4-(5-Acryloyl-2,3,4,5-tetrahydrobenzo[b][1,4]oxazepin-9-yl)-3-fluoro-7-(trifluoromethyl)-9H-carbazole-1-carboxamide]

IC50 (Ramos RA1 B cells; [4]): > 300 nM
Structure (SMILES): C=CC(=O)N1CCc2c(cccc2-c2c(F)cc(C(N)=O)c3[nH]c4c(c23)CC[C@H](C(C)(C)O)C4)C1 (single isomer, unassigned) [Comparative Example 19]

Potency Difference Btk: ratio of IC50 value for the Comparative Example to that for the corresponding Example (human recombinant Btk): 60 | IC50 (human recombinant Btk; [1]): 0.067 nM | IC50 (human recombinant Btk; [5]): 0.067 nM | Potency Difference Ramos: ratio of IC50 value for the Comparative Example to that for the corresponding Example (Ramos RA1 B cells): 30 | IC50 (Ramos RA1 B cells; [6]): 2.4 nM | IC50 (Ramos RA1 B cells; [2]): 2.4 nM
Structure (SMILES): C=CC(=O)N1CCc2c(cccc2-c2c(F)cc(C(N)=O)c3[nH]c4ccccc4c23)C1 (single isomer, unassigned) [Example 5, 4-(2-Acryloyl-1,2,3,4-tetrahydroisoquinolin-5-yl)-3-fluoro-9H-carbazole-1-carboxamide]

IC50 (human recombinant Btk; [3]): 1.5 nM | IC50 (Ramos RA1 B cells; [4]): 65 nM
Structure (SMILES): C=CC(=O)N1CCOc2c(-c3c(F)cc(C(N)=O)c4[nH]c5ccccc5c34)cccc21 (single isomer, unassigned) [Comparative Example 18, 4-(4-Acryloyl-3,4-dihydro-2H-benzo[b][1,4]oxazin-8-yl)-3-fluoro-9H-carbazole-1-carboxamide]

Potency Difference Btk: ratio of IC50 value for the Comparative Example to that for the corresponding Example (human recombinant Btk): 78 | IC50 (human recombinant Btk; [1]): 0.18 nM | IC50 (human recombinant Btk; [5]): 0.18 nM | Potency Difference Ramos: ratio of IC50 value for the Comparative Example to that for the corresponding Example (Ramos RA1 B cells): >27 | IC50 (Ramos RA1 B cells; [6]): 11 nM | IC50 (Ramos RA1 B cells; [2]): 10.7 nM
Structure (SMILES): C=CC(=O)N1CCc2c(cccc2-c2c(F)cc(C(N)=O)c3[nH]c4cc(C(F)(F)F)ccc4c23)C1 (single isomer, unassigned) [Example 7, 4-(2-Acryloyl-1,2,3,4-tetrahydroisoquinolin-5-yl)-3-fluoro-7-(trifluoromethyl)-9H-carbazole-1-carboxamide]

IC50 (human recombinant Btk; [1]): 4.8 nM | IC50 (Ramos RA1 B cells; [2]): 142 nM
Structure (SMILES): N#CN1CCc2c(cccc2-c2c(F)cc(C(N)=O)c3[nH]c4cc(CCO)ccc4c23)C1 (racemic) [Example 27, 4-(2-cyano-1,2,3,4-tetrahydroisoquinolin-5-yl)-3-fluoro-7-(2-hydroxyethyl)-9H-carbazole-1-carboxamide]

Potency Difference Btk: ratio of IC50 value for the Comparative Example to that for the corresponding Example (human recombinant Btk): 60 | IC50 (human recombinant Btk; [1]): 0.073 nM | IC50 (human recombinant Btk; [5]): 0.073 nM | Potency Difference Ramos: ratio of IC50 value for the Comparative Example to that for the corresponding Example (Ramos RA1 B cells): 19 | IC50 (Ramos RA1 B cells; [6]): 7.8 nM | IC50 (Ramos RA1 B cells; [2]): 7.8 nM
Structure (SMILES): C=CC(=O)N1CCSc2c(-c3c(F)cc(C(N)=O)c4[nH]c5ccccc5c34)cccc21 (single isomer, unassigned) [Example 14, 4-(4-acryloyl-3,4-dihydro-2H-benzo[b][1,4]thiazin-8-yl)-3-fluoro-9H-carbazole-1-carboxamide]

IC50 (Ramos RA1 B cells; [7]): 3 nM
Structure (SMILES): C=CC(=O)N1CCc2c(cccc2-c2c(Cl)cc(C(N)=O)c3[nH]c4ccccc4c23)C1 (single isomer, unassigned) [Example 24]

IC50 (Ramos RA1 B cells; [7]): 20 nM
Structure (SMILES): C=CC(=O)N1CCc2c(cccc2-c2c(Cl)cc(C(N)=O)c3[nH]c4ccccc4c23)C1 [Example 30]

IC50 (Ramos RA1 B cells; [7]): 2.3 nM | IC50 (Ramos RA1 B cells; [6]): 2.3 nM
Structure (SMILES): C=CC(=O)N1CCc2c(cccc2-c2c(F)cc(C(N)=O)c3[nH]c4c(c23)CC[C@H](C(C)(C)O)C4)C1 (single isomer, unassigned) [Example 9]

IC50 (human recombinant Btk; [3]): 9.5 nM | IC50 (Ramos RA1 B cells; [4]): 300 nM
Structure (SMILES): C=CC(=O)N1CCCOc2c(-c3c(F)cc(C(N)=O)c4[nH]c5cc(C(F)(F)F)ccc5c34)cccc21 (single isomer, unassigned) [Comparative Example 22, 4-(5-Acryloyl-2,3,4,5-tetrahydrobenzo[b][1,4]oxazepin-9-yl)-3-fluoro-7-(trifluoromethyl)-9H-carbazole-1-carboxamide]

IC50 (Ramos RA1 B cells; [4]): > 300 nM
Structure (SMILES): C=CC(=O)N1CCc2c(cccc2-c2c(F)cc(C(N)=O)c3[nH]c4c(c23)CCC(C(F)(F)F)C4)C1 (single isomer, unassigned) [Comparative Example 20, 5-(2-Acryloyl-1,2,3,4-tetrahydroisoquinolin-5-yl)-6-fluoro-2-(trifluoromethyl)-2,3,4,9-tetrahydro-1H-carbazole-8-carboxamide]

IC50 (human recombinant Btk; [3]): 4 nM | IC50 (Ramos RA1 B cells; [4]): 72 nM
Structure (SMILES): C=CC(=O)N1CCc2c(cccc2-c2c(F)cc(C(N)=O)c3[nH]c4ccccc4c23)C1 (single isomer, unassigned) [Comparative Example 15, 4-(2-Acryloyl-1,2,3,4-tetrahydroisoquinolin-5-yl)-3-fluoro-9H-carbazole-1-carboxamide]

IC50 (human recombinant Btk; [1]): 2.3 nM
Structure (SMILES): C=CC(=O)N1CCc2c(cccc2-c2c(Cl)cc(C(N)=O)c3[nH]c4c(c23)CNCC4)C1 (racemic) [Example 33, 9-(2-acryloyl-1,2,3,4-tetrahydroisoquinolin-5-yl)-8-chloro-2,3,4,5-tetrahydro-1H-pyrido[4,3-b]indole-6-carboxamide]

IC50 (Ramos RA1 B cells; Table 4, Comparative Example, read-out: Comparative Example Ramos IC50): > 300 nM
Structure (SMILES): C=CC(=O)N1CCc2c(cccc2-c2c(F)cc(C(N)=O)c3[nH]c4c(c23)CCC(C(F)(F)F)C4)C1 (single isomer, unassigned) [Comparative Example 21, 5-(2-Acryloyl-1,2,3,4-tetrahydroisoquinolin-5-yl)-6-fluoro-2-(trifluoromethyl)-2,3,4,9-tetrahydro-1H-carbazole-8-carboxamide]

IC50 (human recombinant Btk; [1]): 1.5 nM | IC50 (Ramos RA1 B cells; [2]): 28 nM
Structure (SMILES): C=CC(=O)N1CCc2c(cccc2-c2c(F)cc(C(N)=O)c3[nH]c4cc(CCO)ccc4c23)C1 (racemic) [Example 25, 4-(2-acryloyl-1,2,3,4-tetrahydroisoquinolin-5-yl)-3-fluoro-7-(2-hydroxyethyl)-9H-carbazole-1-carboxamide]

Potency Difference Btk: ratio of IC50 value for the Comparative Example to that for the corresponding Example (human recombinant Btk): 19 | IC50 (human recombinant Btk; [1]): 0.077 nM | IC50 (human recombinant Btk; [5]): 0.077 nM | Potency Difference Ramos: ratio of IC50 value for the Comparative Example to that for the corresponding Example (Ramos RA1 B cells): 9.4 | IC50 (Ramos RA1 B cells; [6]): 6.9 nM | IC50 (Ramos RA1 B cells; [2]): 6.9 nM
Structure (SMILES): C=CC(=O)N1CCOc2c(-c3c(F)cc(C(N)=O)c4[nH]c5ccccc5c34)cccc21 (single isomer, unassigned) [Example 8, 4-(4-Acryloyl-3,4-dihydro-2H-benzo[b][1,4]oxazin-8-yl)-3-fluoro-9H-carbazole-1-carboxamide]

IC50 (Ramos RA1 B cells; [7]): 22.2 nM | IC50 (Ramos RA1 B cells; [6]): 22 nM
Structure (SMILES): C=CC(=O)N1CCc2c(cccc2-c2c(F)cc(C(N)=O)c3[nH]c4c(c23)CCC(C(F)(F)F)C4)C1 (single isomer, unassigned) [Example 10, 5-(2-Acryloyl-1,2,3,4-tetrahydroisoquinolin-5-yl)-6-fluoro-2-(trifluoromethyl)-2,3,4,9-tetrahydro-1H-carbazole-8-carboxamide]

IC50 (Ramos RA1 B cells; Table 3, calcium flux, goat anti-human IgM 2.5 μg/mL, read-out: Ramos IC50 value): 16.3 nM | IC50 (Ramos RA1 B cells; Table 4, read-out: Example Ramos IC50): 16 nM
Structure (SMILES): C=CC(=O)N1CCc2c(cccc2-c2c(F)cc(C(N)=O)c3[nH]c4c(c23)CCC(C(F)(F)F)C4)C1 (single isomer, unassigned) [Example 11, 5-(2-Acryloyl-1,2,3,4-tetrahydroisoquinolin-5-yl)-6-fluoro-2-(trifluoromethyl)-2,3,4,9-tetrahydro-1H-carbazole-8-carboxamide]
